Patent US12264134B2 (Merck Sharp & Dohme LLC, priority 2018, dated 2025)

How the values were obtained:
[1] = target: T1, IDO1 (Homo sapiens, UniProt P14902); test: IDO1 Cellular Assay in HeLa Cells Stimulated with IFNγ; assay type: cell-based; conditions: read-out: HeLa Cell Potency, IC50
[2] = target: T1, IDO1; test: IDO1 Human Whole blood Assay; assay type: cell-based; design: Human whole blood was drawn in sodium heparin coated tubes from healthy internal donors; from tissue; host or cells: human whole blood from healthy donors, stimulated with LPS and IFNγ; conditions: LPS and IFNγ stimulated, 18 h, read-out: Human Whole Blood Potency, IC50
In short: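 Heparinized healthy-donor human whole blood was preincubated 15 min with compound, then stimulated with LPS and IFNγ (100 ng/mL final) for 18 h at 37 °C. Plasma kynurenine was quantified by LC/MS/MS against a D6-kynurenine internal standard, and IC50s came from 4-parameter sigmoidal fits.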

T1 sequence (P14902 whole entry): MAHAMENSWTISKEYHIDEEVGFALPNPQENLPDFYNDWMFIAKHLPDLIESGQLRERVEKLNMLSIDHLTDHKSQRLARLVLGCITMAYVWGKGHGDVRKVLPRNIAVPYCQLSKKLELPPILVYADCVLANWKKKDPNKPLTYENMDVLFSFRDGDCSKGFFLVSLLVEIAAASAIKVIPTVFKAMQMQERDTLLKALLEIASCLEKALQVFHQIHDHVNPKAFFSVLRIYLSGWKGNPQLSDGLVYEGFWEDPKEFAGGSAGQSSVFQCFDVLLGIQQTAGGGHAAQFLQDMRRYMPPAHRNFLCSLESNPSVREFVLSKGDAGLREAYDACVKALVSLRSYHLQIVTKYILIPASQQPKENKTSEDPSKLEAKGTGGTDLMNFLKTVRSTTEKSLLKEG

Row | Structure (SMILES) | IC50 [1] [nM] | IC50 [2] [nM]
1 | Cc1cccc(N2CCN(C(=O)Cn3nc(C(=O)N4CC[C@@H](O)[C@H](F)C4)c4c3C[C@H]3C[C@@H]43)CC2)c1C [Example 279, 1-[4-(2,3-dimethylphenyl)piperazin-1-yl]-2-{(3bR,4aR)-3-[(3R,4R)-3-fluoro-4-hydroxypiperidine-1-carbonyl]-3b,4,4a,5-tetrahydro-1H-cyclopropa[3,4]cyclopenta[1,2-c]pyrazol-1-yl}ethan-1-one] | 0.59 | 70
2 | Cc1c(F)ccc(N2CCN(C(=O)Cn3nc(C(=O)N4CCC(OCCO)CC4)c4c3C[C@H]3C[C@@H]43)C3(CC3)C2)c1C [Example 321, 1-[7-(4-fluoro-2,3-dimethylphenyl)-4,7-diazaspiro[2.5]octan-4-yl]-2-{(3bR,4aR)-3-[4-(2-hydroxyethoxy)piperidine-1-carbonyl]-3b,4,4a,5-tetrahydro-1H-cyclopropa[3,4]cyclopenta[1,2-c]pyrazol-1-yl}ethan-1-one] | 1.47 | 508
3 | Cc1cccc(N2CCN(C(=O)Cn3nc(C(=O)N4CC[C@@H](O)[C@H](C)C4)c4c3C[C@H]3C[C@@H]43)CC2)c1C [Example 284, 1-[4-(2,3-dimethylphenyl)piperazin-1-yl]-2-{(3bR,4aR)-3-[(3R,4R)-4-hydroxy-3-methylpiperidine-1-carbonyl]-3b,4,4a,5-tetrahydro-1H-cyclopropa[3,4]cyclopenta[1,2-c]pyrazol-1-yl}ethan-1-one] | 1.14 | 403
4 | Cc1cccc(N2CCN(C(=O)Cn3nc(C(=O)N4CCC(O)C(F)C4)c4c3CCC4)C3(CC3)C2)c1C (single isomer, unassigned) [Example 393, 1-(7-(2,3-dimethylphenyl)-4,7-diazaspiro[2.5]octan-4-yl)-2-(3-(3-fluoro-4-hydroxypiperidine-1-carbonyl)-5,6-dihydrocyclopenta[c]pyrazol-1(4H)-yl)ethanone] | 7.61 | 971
5 | Cc1cccc(N2CCN(C(=O)Cn3nc(C(=O)N4CCC(O)CC4)c4c3CC(C(F)F)C4)CC2)c1C (racemic) [Example 16, 2-[rac-5-(difluoromethyl)-3-(4-hydroxypiperidine-1-carbonyl)-5,6-dihydro-4H-cyclopenta[c]pyrazol-1-yl]-1-[4-(2,3-dimethylphenyl)piperazin-1-yl]ethanone] | 2.21 | 143
6 | Cc1cccc(N2CCN(C(=O)Cn3nc(C(=O)N4CC[C@H](O)[C@H](F)C4)c4c3CC(C(F)F)C4)CC2)c1C (single isomer, unassigned) [Example 11] | 7.6 | 980
7 | COCCN1[C@H](C)CN(C(=O)c2nn(CC(=O)N3CCN(c4cccc(C)c4C)CC3)c3c2CCC3)C[C@@H]1C [Example 172, 1-[4-(2,3-dimethylphenyl)piperazin-1-yl]-2-{3-[(3R,5S)-4-(2-methoxyethyl)-3,5-dimethylpiperazine-1-carbonyl]-5,6-dihydrocyclopenta[c]pyrazol-1(4H)-yl}ethan-1-one] | 6.12 | 1240
8 | Cc1c(F)ccc(N2CCN(C(=O)Cn3nc(C(=O)N4C[C@@H](C)O[C@@H](C)C4)c4c3CCC4)CC2)c1C [Example 48, 2-{3-[(2R,6S)-2,6-dimethylmorpholine-4-carbonyl]-5,6-dihydrocyclopenta[c]pyrazol-1(4H)-yl}-1-[4-(4-fluoro-2,3-dimethylphenyl)piperazin-1-yl]ethan-1-one] | 2.93 | 492
9 | Cc1cccc(N2CCN(C(=O)Cn3nc(C(=O)N4CCC(O)C(F)C4)c4c3CCC4)C3(CC3)C2)c1C (single isomer, unassigned) [Example 328, 1-[7-(2,3-dimethylphenyl)-4,7-diazaspiro[2.5]octan-4-yl]-2-[3-(3-fluoro-4-hydroxy-piperidine-1-carbonyl)-5,6-dihydro-4H-cyclopenta[c]pyrazol-1-yl]ethanone] | 6.86 | 4160
10 | Cc1cccc(N2CCN(C(=O)Cn3nc(C(=O)N4CC[C@H](O)[C@H](F)C4)c4c3C[C@H]3C[C@@H]43)CC2)c1C [Example 289, 1-[4-(2,3-dimethylphenyl)piperazin-1-yl]-2-{(3bR,4aR)-3-[(3R,4S)-3-fluoro-4-hydroxypiperidine-1-carbonyl]-3b,4,4a,5-tetrahydro-1H-cyclopropa[3,4]cyclopenta[1,2-c]pyrazol-1-yl}ethan-1-one] | 1.95 | 180
11 | Cc1cccc(N2CCN(C(=O)Cn3nc(C(=O)N4CCC(N)CC4)c4c3C[C@H]3C[C@@H]43)CC2)c1C [Example 479, 2-((3bR,4aR)-3-(4-aminopiperidine-1-carbonyl)-3b,4,4a,5-tetrahydro-1H-cyclopropa [3,4]cyclopenta[1,2-c]pyrazol-1-yl)-1-(4-(2,3-dimethylphenyl)piperazin-1-yl)ethanone] | 7.51 | 230
12 | Cc1c(Cl)cccc1N1CCN(C(=O)Cn2nc(C(=O)N3CCC(O)CC3)c3c2CCC(F)C3)CC1 (stereo not shown) [Example 366, 1-(4-(3-chloro-2-methylphenyl)piperazin-1-yl)-2-(5-fluoro-3-(4-hydroxypiperidine-1-carbonyl)-4,5,6,7-tetrahydro-1H-indazol-1-yl)ethan-1-one] | 2.33 | 141
13 | Cc1cccc(N2CCN(C(=O)Cn3nc(C(=O)N4CCC(O)CC4)c4c3C[C@H]3C[C@@H]43)C3(CC3)C2)c1C [Example 357, 1-(7-(2,3-dimethylphenyl)-4,7-diazaspiro[2.5]octan-4-yl)-2-((3bR,4aR)-3-(4-hydroxypiperidine-1-carbonyl)-3b,4,4a,5-tetrahydro-1H-cyclopropa[3,4]cyclopenta[1,2-c]pyrazol-1-yl)ethanone] | 0.89 | 1870

Next, values leading:

Row | IC50 [1] [nM] | IC50 [2] [nM] | Structure (SMILES)
14 | 3 | 306 | Cc1c(Cl)cccc1N1CCN(C(=O)Cn2nc(C(=O)N3CC[C@@H](O)[C@@H](F)C3)c3c2CCCC3)CC1 [Example 406, 1-(4-(3-chloro-2-methylphenyl)piperazin-1-yl)-2-(3-((3S,4R)-3-fluoro-4-hydroxypiperidine-1-carbonyl)-4,5,6,7-tetrahydro-1H-indazol-1-yl)ethanone]
15 | 3.34 | 196 | Cc1cccc(N2CCN(C(=O)Cn3nc(C(=O)N4CCN(CC(F)F)CC4)c4c3CCC4)CC2)c1C [Example 157, 2-{3-[4-(2,2-difluoroethyl)piperazine-1-carbonyl]-5,6-dihydrocyclopenta[c]pyrazol-1(4H)-yl}-1-[4-(2,3-dimethylphenyl)piperazin-1-yl]ethan-1-one]
16 | 11.3 | 2440 | Cc1cccc(N2CCN(C(=O)Cn3nc(C(=O)N4CCCC4)c4c3CCC(F)C4)CC2)c1C (single isomer, unassigned) [Example 8, 1-(4-(2,3-dimethylphenyl)piperazin-1-yl)-2-(5-fluoro-3-(pyrrolidine-1-carbonyl)-4,5,6,7-tetrahydro-1H-indazol-1-yl)ethanone]
17 | 7.88 | 189 | Cc1cccc(N2CCN(C(=O)Cn3nc(C(=O)N4CCN(C)[C@H](C)C4)c4c3CCC4)CC2)c1C [Example 167, 1-[4-(2,3-dimethylphenyl)piperazin-1-yl]-2-{3-[(3R)-3,4-dimethylpiperazine-1-carbonyl]-5,6-dihydrocyclopenta[c]pyrazol-1(4H)-yl}ethan-1-one]
18 | 5.8 | 9550 | Cc1cccc(N2CCN(C(=O)Cn3nc(C(=O)N4CC[C@@H](O)[C@H](F)C4)c4c3CCC4)CC2)c1C [Example 91, 1-[4-(2,3-dimethylphenyl)piperazin-1-yl]-2-{3-[(3R,4R)-3-fluoro-4-hydroxypiperidine-1-carbonyl]-5,6-dihydrocyclopenta[c]pyrazol-1(4H)-yl}ethan-1-one]
19 | 2.82 | 68 | Cc1cccc(N2CCN(C(=O)Cn3nc(C(=O)N4CCN(CC(N)=O)CC4)c4c3CCCC4)CC2)c1C [Example 454, 2-(4-(1-(2-(4-(2,3-dimethylphenyl)piperazin-1-yl)-2-oxoethyl)-4,5,6,7-tetrahydro-1H-indazol-3-carbonyl)piperazin-1-yl) acetamide]
20 | 4.26 | 52 | Cc1cccc(N2CCN(C(=O)Cn3nc(C(=O)N4CC[C@H](O)[C@H](F)C4)c4c3CCCC4)CC2)c1C [Example 475, 1-(4-(2,3-dimethylphenyl)piperazin-1-yl)-2-(3-((3R,4S)-3-fluoro-4-hydroxypiperidine-1-carbonyl)-4,5,6,7-tetrahydro-1H-indazol-1-yl)ethanone]
21 | 4.88 | 555 | Cc1cccc(N2CCN(C(=O)Cn3nc(C(=O)N4CCCC4)c4c3CCCC4)CC2)c1C [Example 2, 1-[4-(2,3-dimethylphenyl)piperazin-4-ium-1-yl]-2-[3-(pyrrolidine-1-carbonyl)-4,5,6,7-tetrahydroindazol-1-yl]ethanone]
22 | 1.83 | 152 | Cc1cccc(N2CCN(C(=O)Cn3nc(C(=O)N4CCC(O)CC4)c4c3CCCC4)CC2)c1Cl [Example 450, 1-(4-(2-chloro-3-methylphenyl)piperazin-1-yl)-2-(3-(4-hydroxypiperidine-1-carbonyl)-4,5,6,7-tetrahydro-1H-indazol-1-yl)ethanone]
23 | 7.66 | 1670 | Cc1cccc(N2CCN(C(=O)Cn3nc(C(=O)N4CCN5CCOC[C@H]5C4)c4c3CCC4)CC2)c1C [Example 173, 1-[4-(2,3-dimethylphenyl)piperazin-1-yl]-2-{3-[(9aR)-hexahydropyrazino[2,1-c][1,4]oxazine-8(1H)-carbonyl]-5,6-dihydrocyclopenta[c]pyrazol-1(4H)-yl}ethan-1-one]
